Test results taken from PubChem BioAssay AID624090 (The Scripps Research Institute Molecular Screening Center, 2012).
Active and inactive are the calls of the source.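 The calls were made as follows: active = AmpC beta-lactamase inhibition with IC50 of 10 µM or lower; inactive = the rest.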

Molecular target: AmpC beta-lactamase (Escherichia coli)
Test: E. coli AmpC beta-lactamase inhibitors, broad-spectrum VIM-2 effort – biochemical, absorbance, probe candidates and analogs, selectivity assay for nonselective VIM-2 inhibitor project, late-stage follow-up (AID 624090)
Settings: recombinant AmpC, nitrocefin hydrolysis

SMILES	IC50
CN1CCN(NC(=O)CN2C(=O)/C(=C/c3c(Cl)ccc(Cl)c3Cl)SC2=S)CC1	> 60 µM (inactive)
CN1CCN(NC(=O)CN2C(=O)/C(=C/c3c(Cl)cccc3Cl)SC2=S)CC1	> 60 µM (inactive)
